Laboratory results from ChEMBL document CHEMBL2385072, “Development of oleanane-type triterpenes as a new class of HCV entry inhibitors” (J Med Chem, 2013).

How the values were obtained:
Conditions in all cases: HEK-293T
Hepatitis C virus [1] = assay: Antiviral activity against pseudo HCV infected in human 293T cells assessed as inhibition of HCV pseudo particles entry at 1 uM after 72 hrs by luciferase reporter gene assay; format: functional, Hepacivirus hominis
[2] = tested on: Vesicular stomatitis virus; assay: Antiviral activity against pseudo VSV infected in human 293T cells assessed as inhibition of vesicular stromatis G protein pseudo particles entry at 5 uM after 72 hrs by luciferase reporter gene assay; format: functional
[3] = tested on: Vesicular stomatitis virus; assay: Antiviral activity against pseudo VSV infected in human 293T cells assessed as inhibition of vesicular stromatis G protein pseudo particles entry at 1 uM after 72 hrs by luciferase reporter gene assay; format: functional
Hepatitis C virus [4] = assay: Antiviral activity against pseudo HCV infected in human 293T cells assessed as inhibition of HCV pseudo particles entry at 5 uM after 72 hrs by luciferase reporter gene assay; format: functional, Hepacivirus hominis

**Q.** CC1(C)CC[C@]2(C(=O)O[C@@H]3O[C@H](CO)[C@H](O)[C@H](O)[C@H]3O)[C@H](O)C[C@]3(C)C(=CC[C@@H]4[C@@]5(C)CC[C@H](O)C(C)(C)[C@@H]5CC[C@]43C)[C@@H]2C1 was tested. Which inhibition at 1 µM (Hepatitis C virus [1]) did it give?
**A.** Its inhibition at 1 µM is 40.9%.

**Q.** And the inhibition at 5 µM [2]?
**A.** Its inhibition at 5 µM is 14.6%.

**Q.** And the inhibition at 1 µM [3]?
**A.** The inhibition at 1 µM was 8.1%.

**Q.** What about the inhibition at 5 µM (Hepatitis C virus [4]) of the same compound?
**A.** Its inhibition at 5 µM is 61.6%.

**Q.** How did the inhibition at 1 µM (Hepatitis C virus [1]) turn out when CC1(C)CC[C@]2(C(=O)NCc3cn([C@@H]4O[C@H](CO)[C@@H](O[C@@H]5O[C@H](CO)[C@H](O)[C@H](O)[C@H]5O)[C@H](O)[C@H]4O)nn3)[C@H](O)C[C@]3(C)C(=CC[C@@H]4[C@@]5(C)CC[C@H](O)C(C)(C)[C@@H]5CC[C@]43C)[C@@H]2C1 was run?
**A.** The inhibition at 1 µM was 23.1%.

**Q.** What about the inhibition at 5 µM [2] of the same compound?
**A.** Its inhibition at 5 µM is 47.3%.

**Q.** And the inhibition at 1 µM [3]?
**A.** Its inhibition at 1 µM is 47%.

**Q.** What about the inhibition at 5 µM (Hepatitis C virus [4]) of the same compound?
**A.** The inhibition at 5 µM was 14.6%.

**Q.** Which inhibition at 1 µM (Hepatitis C virus [1]) does the source give for CC1(C)CC[C@]2(C(=O)NCc3cn([C@@H]4O[C@H](CO)[C@@H](O[C@H]5O[C@H](CO)[C@@H](O)[C@H](O)[C@H]5O)[C@H](O)[C@H]4O)nn3)[C@H](O)C[C@]3(C)C(=CC[C@@H]4[C@@]5(C)CC[C@H](O)C(C)(C)[C@@H]5CC[C@]43C)[C@@H]2C1 here?
**A.** The inhibition at 1 µM was 9.3%.

**Q.** And the inhibition at 5 µM [2]?
**A.** Its inhibition at 5 µM is 48.1%.

**Q.** And the inhibition at 1 µM [3]?
**A.** Its inhibition at 1 µM is 25.8%.

**Q.** What about the inhibition at 5 µM (Hepatitis C virus [4]) of the same compound?
**A.** The inhibition at 5 µM was 29.7%.

**Q.** For CC1(C)CC[C@]2(C(=O)O)[C@H](OCc3ccccc3)C[C@]3(C)C(=CC[C@@H]4[C@@]5(C)CC[C@H](OCc6ccccc6)C(C)(C)[C@@H]5CC[C@]43C)[C@@H]2C1, which inhibition at 1 µM (Hepatitis C virus [1]) is on record?
**A.** The inhibition at 1 µM was 5.5%.

**Q.** What about the inhibition at 5 µM [2] of the same compound?
**A.** Its inhibition at 5 µM is 30.6%.

**Q.** And the inhibition at 1 µM [3]?
**A.** The inhibition at 1 µM was 28.8%.

**Q.** What about the inhibition at 5 µM (Hepatitis C virus [4]) of the same compound?
**A.** Its inhibition at 5 µM is 28.2%.

**Q.** For CC(=O)O[C@H]1[C@H](OC(C)=O)[C@H](OC(C)=O)CO[C@H]1n1cc(CNC(=O)[C@]23CCC(C)(C)C[C@H]2C2=CC[C@@H]4[C@@]5(C)CC[C@H](O)C(C)(C)[C@@H]5CC[C@@]4(C)[C@]2(C)C[C@H]3O)nn1, which inhibition at 1 µM (Hepatitis C virus [1]) is on record?
**A.** The inhibition at 1 µM was 26.3%.

**Q.** And the inhibition at 5 µM [2]?
**A.** The inhibition at 5 µM was 20.9%.

**Q.** And the inhibition at 1 µM [3]?
**A.** The inhibition at 1 µM was -6.6%.

**Q.** And the inhibition at 5 µM (Hepatitis C virus [4])?
**A.** The inhibition at 5 µM was 72.6%.

**Q.** Which inhibition at 1 µM (Hepatitis C virus [1]) does the source give for COC(=O)[C@]12CCC(C)(C)C[C@H]1C1=CC[C@@H]3[C@@]4(C)CCC(=O)C(C)(C)[C@@H]4CC[C@@]3(C)[C@]1(C)C[C@H]2O here?
**A.** Its inhibition at 1 µM is 3.5%.

**Q.** And the inhibition at 5 µM [2]?
**A.** Its inhibition at 5 µM is 55.4%.

**Q.** What about the inhibition at 1 µM [3] of the same compound?
**A.** Its inhibition at 1 µM is 21.5%.

**Q.** And the inhibition at 5 µM (Hepatitis C virus [4])?
**A.** Its inhibition at 5 µM is 64.7%.

**Q.** For CC1(C)CC[C@]2(C(=O)O[C@@H]3O[C@H](CO)[C@@H](O)[C@H](O)[C@H]3O)[C@H](O)C[C@]3(C)C(=CC[C@@H]4[C@@]5(C)CC[C@H](O)C(C)(C)[C@@H]5CC[C@]43C)[C@@H]2C1, which inhibition at 1 µM (Hepatitis C virus [1]) is on record?
**A.** The inhibition at 1 µM was 30.6%.

**Q.** What about the inhibition at 5 µM [2] of the same compound?
**A.** Its inhibition at 5 µM is 5.6%.

**Q.** What about the inhibition at 1 µM [3] of the same compound?
**A.** Its inhibition at 1 µM is 12.9%.

**Q.** And the inhibition at 5 µM (Hepatitis C virus [4])?
**A.** Its inhibition at 5 µM is 67.5%.

**Q.** How did the inhibition at 1 µM (Hepatitis C virus [1]) turn out when CC(=O)OC[C@H]1O[C@@H](O[C@H]2[C@H](OC(C)=O)[C@@H](OC(C)=O)[C@H](n3cc(CNC(=O)[C@]45CCC(C)(C)C[C@H]4C4=CC[C@@H]6[C@@]7(C)CC[C@H](O)C(C)(C)[C@@H]7CC[C@@]6(C)[C@]4(C)C[C@H]5O)nn3)O[C@@H]2COC(C)=O)[C@H](OC(C)=O)[C@@H](OC(C)=O)[C@H]1OC(C)=O was run?
**A.** The inhibition at 1 µM was 24.6%.

**Q.** And the inhibition at 5 µM [2]?
**A.** The inhibition at 5 µM was 32.1%.

**Q.** What about the inhibition at 1 µM [3] of the same compound?
**A.** The inhibition at 1 µM was 39%.

**Q.** And the inhibition at 5 µM (Hepatitis C virus [4])?
**A.** The inhibition at 5 µM was 71.8%.

**Q.** How did the inhibition at 1 µM (Hepatitis C virus [1]) turn out when CC(=O)O[C@@H]1[C@@H](OC(C)=O)[C@H](OC(=O)[C@]23CCC(C)(C)C[C@H]2C2=CC[C@@H]4[C@@]5(C)CC[C@H](O)C(C)(C)[C@@H]5CC[C@@]4(C)[C@]2(C)C[C@H]3O)OC[C@H]1OC(C)=O was run?
**A.** Its inhibition at 1 µM is 17.5%.

**Q.** And the inhibition at 5 µM [2]?
**A.** Its inhibition at 5 µM is 21.7%.

**Q.** And the inhibition at 1 µM [3]?
**A.** The inhibition at 1 µM was 20.1%.

**Q.** And the inhibition at 5 µM (Hepatitis C virus [4])?
**A.** The inhibition at 5 µM was 70.7%.

**Q.** How did the inhibition at 1 µM (Hepatitis C virus [1]) turn out when CC(=O)O[C@@H]1[C@@H](OC(C)=O)[C@H](OC(C)=O)CO[C@H]1n1cc(CNC(=O)[C@]23CCC(C)(C)C[C@H]2C2=CC[C@@H]4[C@@]5(C)CC[C@H](O)C(C)(C)[C@@H]5CC[C@@]4(C)[C@]2(C)C[C@H]3O)nn1 was run?
**A.** The inhibition at 1 µM was 35.9%.

**Q.** What about the inhibition at 5 µM [2] of the same compound?
**A.** The inhibition at 5 µM was 47.7%.

**Q.** What about the inhibition at 1 µM [3] of the same compound?
**A.** The inhibition at 1 µM was 39.8%.

**Q.** And the inhibition at 5 µM (Hepatitis C virus [4])?
**A.** Its inhibition at 5 µM is 87.3%.

**Q.** With CC1(C)CC[C@]2(C(=O)NCc3cn([C@@H]4O[C@H](CO)[C@@H](O)[C@H](O)[C@@H]4O)nn3)[C@H](O)C[C@]3(C)C(=CC[C@@H]4[C@@]5(C)CC[C@H](O)C(C)(C)[C@@H]5CC[C@]43C)[C@@H]2C1 as the compound, how does the inhibition at 1 µM (Hepatitis C virus [1]) read?
**A.** The inhibition at 1 µM was 17.5%.

**Q.** And the inhibition at 5 µM [2]?
**A.** The inhibition at 5 µM was 19.5%.

**Q.** And the inhibition at 1 µM [3]?
**A.** The inhibition at 1 µM was 17.9%.

**Q.** And the inhibition at 5 µM (Hepatitis C virus [4])?
**A.** Its inhibition at 5 µM is 25%.

**Q.** With CC1(C)CC[C@]2(C(=O)O[C@@H]3O[C@H](CO)[C@@H](O[C@H]4O[C@H](CO)[C@@H](O)[C@H](O)[C@H]4O)[C@H](O)[C@H]3O)[C@H](O)C[C@]3(C)C(=CC[C@@H]4[C@@]5(C)CC[C@H](O)C(C)(C)[C@@H]5CC[C@]43C)[C@@H]2C1 as the compound, how does the inhibition at 1 µM (Hepatitis C virus [1]) read?
**A.** The inhibition at 1 µM was 36.4%.

**Q.** What about the inhibition at 5 µM [2] of the same compound?
**A.** The inhibition at 5 µM was 21.9%.

**Q.** What about the inhibition at 1 µM [3] of the same compound?
**A.** Its inhibition at 1 µM is 21.6%.

**Q.** And the inhibition at 5 µM (Hepatitis C virus [4])?
**A.** Its inhibition at 5 µM is 43.7%.

**Q.** Which results are given for CC1(C)CC[C@]2(C(=O)NCc3cn([C@@H]4OC[C@@H](O)[C@@H](O)[C@@H]4O)nn3)[C@H](O)C[C@]3(C)C(=CC[C@@H]4[C@@]5(C)CC[C@H](O)C(C)(C)[C@@H]5CC[C@]43C)[C@@H]2C1?
**A.** inhibition at 1 µM (Hepatitis C virus [1]): 18.7%; inhibition at 5 µM [2]: 25.1%; inhibition at 1 µM [3]: 8.4%; inhibition at 5 µM (Hepatitis C virus [4]): 32.2%

**Q.** With CC1(C)CC[C@]2(C(=O)NCc3cn([C@@H]4O[C@H](CO)[C@H](O)[C@H](O)[C@H]4O)nn3)[C@H](O)C[C@]3(C)C(=CC[C@@H]4[C@@]5(C)CC[C@H](O)C(C)(C)[C@@H]5CC[C@]43C)[C@@H]2C1 as the compound, how does the inhibition at 1 µM (Hepatitis C virus [1]) read?
**A.** The inhibition at 1 µM was 16.6%.

**Q.** And the inhibition at 5 µM [2]?
**A.** Its inhibition at 5 µM is 25.3%.

**Q.** What about the inhibition at 1 µM [3] of the same compound?
**A.** The inhibition at 1 µM was 11.5%.

**Q.** What about the inhibition at 5 µM (Hepatitis C virus [4]) of the same compound?
**A.** Its inhibition at 5 µM is 36.3%.
